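In this assay, cells in 96-well plates receive the compound at five concentrations for 48 hours. Endpoints are linearly interpolated between the surrounding concentrations. TGI denotes the concentration required for complete inhibition of growth.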
Tests used:
Assay in all cases: NCI-60 cell line screen, 48 h
MDA-MB-435 = system: MDA-MB-435
MOLT-4 leukemia = system: MOLT-4 leukemia
SNB-19 CNS = system: SNB-19 CNS
SN12C renal = system: SN12C renal
NCI-H522 lung = system: NCI-H522 lung
786-0 renal = system: 786-0 renal
OVCAR-5 ovarian = system: OVCAR-5 ovarian
IGROV1 ovarian = system: IGROV1 ovarian
A549 NSCLC = system: A549 NSCLC
CCRF-CEM leukemia = system: CCRF-CEM leukemia
NCI-H226 lung = system: NCI-H226 lung
T-47D breast = system: T-47D breast
NCI-H23 lung = system: NCI-H23 lung
PC-3 prostate = system: PC-3 prostate
A498 renal = system: A498 renal
SF-268 CNS = system: SF-268 CNS
SK-OV-3 ovarian = system: SK-OV-3 ovarian
NCI-H460 lung = system: NCI-H460 lung
SNB-75 CNS = system: SNB-75 CNS

SMILES | TGI (MDA-MB-435) | TGI (MOLT-4 leukemia) | TGI (SNB-19 CNS) | TGI (SN12C renal) | TGI (NCI-H522 lung) | TGI (786-0 renal) | TGI (OVCAR-5 ovarian) | TGI (IGROV1 ovarian) | TGI (A549 NSCLC) | TGI (CCRF-CEM leukemia) | TGI (NCI-H226 lung) | TGI (T-47D breast) | TGI (NCI-H23 lung) | TGI (PC-3 prostate) | TGI (A498 renal) | TGI (SF-268 CNS) | TGI (SK-OV-3 ovarian) | TGI (NCI-H460 lung) | TGI (SNB-75 CNS)
O=C1CSSCC(=O)Nc2ccccc2N1 | > 100 µM | > 100 µM | > 100 µM | > 100 µM | > 100 µM | > 100 µM | > 100 µM | > 100 µM | > 100 µM | > 100 µM | > 100 µM | > 100 µM | > 100 µM | > 100 µM | > 100 µM | > 100 µM | > 100 µM | > 100 µM | 
COc1ccccc1N(CN1C(=O)CCC1C(=O)O)C(C)=O (stereo unspecified) | > 100 µM | > 100 µM | > 100 µM | > 100 µM | > 100 µM | > 100 µM | > 100 µM | > 100 µM | > 100 µM |  | > 100 µM | > 100 µM | > 100 µM | > 100 µM | > 100 µM | > 100 µM | > 100 µM | > 100 µM | > 100 µM
CC(C)(C)C(=O)OCOP(=O)(OCOC(=O)C(C)(C)C)OCC1OC(n2ccc(=O)[nH]c2=O)C(N=[N+]=[N-])C1O (stereo unspecified) | 15.5 µM | 31.4 µM | 25.7 µM | 22 µM | 17.5 µM | 10.3 µM | 16.1 µM | 17.5 µM | 14 µM | 13.3 µM | 22 µM | 11.7 µM | 16.3 µM | 14.1 µM |  | 17.8 µM |  | 12.1 µM | 14.1 µM
O=c1[nH]nc(-c2ccccc2)n1-c1ccncc1 | > 100 µM | > 100 µM | > 100 µM | > 100 µM | > 100 µM | > 100 µM | > 100 µM | > 100 µM | > 100 µM | > 100 µM | > 100 µM | > 100 µM | > 100 µM | > 100 µM | > 100 µM | > 100 µM |  | > 100 µM | > 100 µM
CN(C)c1ccc(/C=C2/NC(=S)NC2=O)cc1 | > 100 µM | > 100 µM | > 100 µM | > 100 µM | > 100 µM | > 100 µM | > 100 µM | > 100 µM | > 100 µM | 80.8 µM | > 100 µM | > 100 µM | > 100 µM | > 100 µM |  | > 100 µM | > 100 µM |  | > 100 µM
COc1cc(/C=N\N(C)C)cc(/C=N/N(C)C)c1O | > 100 µM |  | > 100 µM | 52.7 µM | > 100 µM | 74.1 µM |  |  | > 100 µM | 72.4 µM | 50.6 µM | 15.2 µM | > 100 µM | 96.2 µM | > 100 µM | > 100 µM | 55.4 µM | > 100 µM | 
CCOC(=O)CCCNC(=O)CCCCC(=O)N(C)C | > 100 µM | > 100 µM | > 100 µM | > 100 µM | > 100 µM | > 100 µM | > 100 µM | > 100 µM | > 100 µM | > 100 µM | > 100 µM | > 100 µM | > 100 µM | > 100 µM | > 100 µM | > 100 µM | > 100 µM | > 100 µM | 
O=c1c2ccccc2[nH]c2c(Cl)cc(Cl)c(NC3CCCCC3)c12 | 43.5 µM | 86.9 µM | 38.8 µM | 55.3 µM | 44 µM | > 100 µM | 53.9 µM | 96.2 µM | > 100 µM |  | 44.4 µM | > 100 µM | 36.8 µM | 60.1 µM | 43.3 µM |  | > 100 µM |  | 83.6 µM
Cc1ccc(/C(Cl)=C/C=C(C#N)C#N)cc1 | 6.94 µM | > 100 µM | 24 µM | 17.4 µM | 5.17 µM | 3.77 µM | 7.48 µM | 16.2 µM | 56 µM | > 100 µM | 17.2 µM | > 100 µM | 3.36 µM | > 100 µM |  | 21.3 µM | 26.1 µM | > 100 µM | 37.6 µM
Cc1ccc(S(=O)(=O)c2ccsc2NC(=O)C(F)(F)F)cc1 | > 100 µM | 45.9 µM | > 100 µM | 66.8 µM | > 100 µM | > 100 µM | > 100 µM | > 100 µM | > 100 µM |  | > 100 µM | > 100 µM | > 100 µM | > 100 µM | > 100 µM | > 100 µM | > 100 µM | > 100 µM | 77.8 µM
CC(=O)c1sc2c(c1OC(=O)c1ccco1)c(=O)n(-c1ccccc1)c(=S)n2-c1ccccc1 | 61.7 µM | 53.8 µM | 88.2 µM | > 100 µM | 39.7 µM | > 100 µM |  | 54.2 µM | > 100 µM | 43.5 µM | 16.1 µM | 36.4 µM | 73.8 µM | 64.2 µM |  | 87.2 µM | 55.3 µM | > 100 µM | 78.1 µM
COC(=O)C1=C(O)C(C(=O)OC)[C@]2(O)[C@H](C(=O)OC)[C@H]1C[C@@H](c1ccc(Cl)cc1)[C@H]2C(=O)OC (stereo partly specified) | 25.4 µM | > 100 µM | 29.8 µM | 79.6 µM |  | 23.9 µM | 40.3 µM | > 100 µM | 89.5 µM | > 100 µM | 38.2 µM | > 100 µM | 22.9 µM | 18.8 µM | 27.2 µM | 29 µM | 23.4 µM | 49.4 µM | 38.7 µM
O=C1CCC2(c3ccccc3)Nc3ccncc3N12 (stereo unspecified) | > 10 µM | > 10 µM | > 10 µM | > 10 µM | > 10 µM | > 10 µM | > 10 µM |  | > 10 µM | > 10 µM | > 10 µM | > 10 µM | > 10 µM | > 10 µM |  | > 10 µM | > 10 µM | > 10 µM | > 10 µM
COC(=O)CC(c1cn(S(=O)(=O)c2ccc(C)cc2)c2ccccc12)C1C[C@@H](C(=O)OC)N(C(=O)OC(C)(C)C)C1=O (stereo partly specified) | > 100 µM | 21 µM | > 100 µM | > 100 µM | > 100 µM | > 100 µM | > 100 µM | > 100 µM | > 100 µM | 76.9 µM | > 100 µM | > 100 µM | > 100 µM | > 100 µM | > 100 µM | > 100 µM |  | > 100 µM | > 100 µM
O=C1c2[nH]c3ccc(Br)cc3c2CCN1Cc1ccc(Cl)cc1 | 28.6 µM |  | 32.7 µM | 39.9 µM | 37.9 µM | 24.1 µM | 26.2 µM | 35.5 µM | 26.9 µM | > 100 µM |  | 29.2 µM | 32.3 µM | 19.4 µM | 34.1 µM | 33.2 µM |  |  | 38.5 µM
CCC(C)(C)C1CCC2c3c([nH]c4ccccc34)C3C(=O)N(c4ccc(OC)cc4)C(=O)C3C2C1 (stereo unspecified) | 43.5 µM | 60.8 µM | 86.2 µM | 6.67 µM | 20.6 µM | 25.9 µM | 45.6 µM | 90.8 µM | 35.5 µM |  | 37.3 µM | 38.4 µM | 35.1 µM | 26.6 µM |  | 43.6 µM | 77.6 µM | > 100 µM | 42.2 µM
Cc1ccc([N+](=O)[O-])cc1S(=O)(=O)Nc1ccc(C2=NN(c3ccc([N+](=O)[O-])cc3[N+](=O)[O-])C(c3cccs3)C2)cc1 (stereo unspecified) | 51.4 µM | 53.3 µM | > 100 µM | 34.1 µM | 39 µM | 38.6 µM | > 100 µM | 53.7 µM | > 100 µM | > 100 µM | 60.1 µM | > 100 µM | 44.1 µM | > 100 µM |  | 69.9 µM | 77.9 µM |  | 81.3 µM
N#CC1C(=O)N(c2ccccc2)NC12OC(=O)c1ccncc12 (stereo unspecified) | > 20 µM | > 20 µM | > 20 µM | > 20 µM | > 20 µM | > 20 µM | > 20 µM | > 20 µM | > 20 µM | > 20 µM | > 20 µM | > 20 µM | > 20 µM | > 20 µM | > 20 µM |  | > 20 µM | > 20 µM | 
Cc1nc(-c2cc3c(ccc4ccccc43)oc2=O)cs1 | > 100 µM | > 100 µM | > 100 µM | > 100 µM | > 100 µM | > 100 µM | > 100 µM | > 100 µM | > 100 µM | > 100 µM | > 100 µM | > 100 µM |  | > 100 µM |  | > 100 µM | > 100 µM | > 100 µM | 75.2 µM
N#CC12CNCC1CN=N2 (stereo unspecified) | > 100 µM | > 100 µM | > 100 µM | > 100 µM | > 100 µM | > 100 µM | > 100 µM | > 100 µM | > 100 µM | > 100 µM | > 100 µM | > 100 µM | > 100 µM | > 100 µM | > 100 µM | > 100 µM |  | > 100 µM | > 100 µM
COC(=O)/C=C(/C=C1/C(C#N)=C(N)N(c2ccc(Cl)cc2)C1(C)/C(=C/C(=O)OC)C(=O)OC)C(=O)OC (stereo unspecified) | > 100 µM | > 100 µM | > 100 µM | > 100 µM | > 100 µM | > 100 µM | > 100 µM | > 100 µM |  | > 100 µM |  | > 100 µM | > 100 µM | > 100 µM | > 100 µM | > 100 µM | > 100 µM | > 100 µM | 76 µM

Reference: PubChem BioAssay (NCI)
